Assay results taken from patent publication US20260283205A1, “ACYLATED DIHYDROCHALCONES, METHODS OF PRODUCTION AND USES THEREOF” (SYMRISE AG, priority 2023, published 2026).

Legend:
[1] = system: panel of 20 trained panellists; experiment: Intrinsic sweetness: concentration in water equally sweet as a 1.5% sucrose solution; format: in vivo; settings: no significant difference (p<0.05) to 1.5% sucrose
Procedure: Compounds 9, 41, 57, 73 and 89 were provided as described in Example 3 and purified to >95% with preparative chromatography. The obtained compounds were used for sensory evaluations.
The intrinsic sweetness of the compounds was determined by a panel of 20 trained panellists. The intrinsic sweetness of a compound is determined by evaluating the sweetness of the compound at different concentrations in water against a 1.5% sucrose solution.
A mixture of butanoylated HG and a mixture of pentanoylated HG were provided as described in Example 3.
The intrinsic sweetness was determined as described in Example 4. As shown in the table, the concentrations of the acylated compounds, which represent equal sweetness as the 1.5% sucrose solution, are approximately ⅕ to ⅛ of the required concentration of HG (non-acylated). Thus, acylation of HG provides a strong increase of the intrinsic sweetness.

trained flavourist panel = experiment: Sensory profile (impact, intensity, mouthfeel, lingering sweetness) of 5% sucrose solution with added compound; format: in vivo; settings: for Lingering sweetness / Impact / Intensity / Mouthfeel: 5% sucrose solution (A1) + HG 50 ppm, compound 9 15 ppm, 41 5 ppm, 57 3 ppm, 73 5 ppm, 89 5 ppm; for Lingering sweetness: sucrose alone scores 1; for Impact: sucrose alone scores 3; for Intensity / Mouthfeel: sucrose alone scores 4
Procedure: A 5% sucrose solution was prepared. Compounds 9, 41, 57, 73 and 89 were provided as described in Example 3 and purified to >95% with preparative chromatography.
The sensory profile of the sucrose solution (control) and the sucrose solution including HG (control), compounds 9, 41, 57, 73 or 89 was determined by a trained flavourist panel comparing the impact, intensity and mouthfeel.

[2] = system: trained sensory panel (n=20); experiment: Paired comparison tests (Duo test): sweetness increase of 5% sucrose solution in water; format: in vivo; set-up: unit not given here; settings: dosage HG 50, compound 9 10, 41 5, 57 3, 73 5, 89 5 mg/kg
Procedure: The sensory impact of the compounds 9, 41, 57, 73 and 89 on a 5% sucrose solution in water was analysed by a trained sensory panel (n=20) using a series of paired comparison tests (Duo test). The samples were coded and randomized.

[3] = system: panel of five flavorists (n=5); experiment: Taste descriptors (scale 0-9) of sugar base with sweet tasting / sweet taste modulating substances, without (A) and with (B) compound 41 or 57; format: in vivo; settings: for Lingering sweetness (0-9), Δ (B-A) / Mouthfeel (0-9), Δ (B-A) / Onset sweetness (0-9), Δ (B-A) / Overall sweetness (0-9), Δ (B-A) / Mouthfeel (0-9), sample A / Lingering sweetness (0-9), sample A / Onset sweetness (0-9), sample A / Overall sweetness (0-9), sample A: scale 0-9; for Mouthfeel (0-9), sample A / Lingering sweetness (0-9), sample A / Onset sweetness (0-9), sample A / Overall sweetness (0-9), sample A: n=5; for Onset sweetness (0-9), A / Overall sweetness (0-9), A: samples (A): sugar base (5% sucrose+0.1% citric acid) + PH 25, HT 12, HC 50, RS 75, LHG 20, PD 3 or SG 60 mg/kg, without compound 41; for Onset sweetness (0-9), A: base alone 2.0; for Overall sweetness (0-9), A: base alone 3.0
Procedure: A sugar base (5% sucrose+0.1% citric acid) was provided. Further, the sweet tasting substances RS (20% Rubusoside), SG (90% steviol oligoglucosides), HC (8% Hesperetin dihydrochalcone), LHG (52% mogroside V) and the sweet taste modulating substances PD (>95% Phyllodulcin), HT (>85% Hesperetin) and PH (>98% Phloretin) were provided and added to the sugar base to produce different samples (A).
A dose of 2 mg/kg compound 41 or, respectively, 1.2 mg/kg compound 57 was added to the samples to obtain samples (B).
Different taste descriptors were compared between the respective samples (A) and (B) by a panel of five flavorists (n=5) using a scale of 0-9.
The panelists were asked to neutralize with tap water between each sample and the intensity of the descriptors of each sample were defined before tasting the next sample. The tasting of each RS, SG, HC, LHG, PD, HT or PH (samples (A)) were followed by the samples with added RS, SG, HC, LHG, PD, HT or PH+compound (41 or 57) (samples (B)) with each being compared to the intensities of the base.

[4] = system: panel of five flavorists (n=5); experiment: Sweet taste modulation in lemonade bases with reduced sugar content, descriptor intensities 0-9; format: in vivo; settings: 5 mg/kg compound 41 or 3 mg/kg compound 57, intensity 0-9
Procedure: A dose of 5 mg/kg compound 41 or, respectively, 3 mg/kg compound 57 were applied to different sugar reduced lemonade bases to restore the overall and sweet taste of the respective matrix with reduced sugar content. Different descriptors were determined by a panel of five flavorists (n=5) and given as intensities from 0-9.
The lemonade bases were “full sugar”, “sugar reduced”, “Stevia Hybride”, “Sugar free base Suc/Ace K” and “Sugar free base Asp/Ace K” with the following recipes: […]

[5] = cited from earlier work
[6] = difference between sample B (+1.2 mg/kg compound 57) and sample A
[7] = lemonade base "Sugar free base Asp/Ace K"
[8] = lemonade base "Sugar free base Suc/Ace K"
[9] = difference between sample B (+2 mg/kg compound 41) and sample A
[10] = compound 41 series, sample A: sugar base (5% sucrose+0.1% citric acid) + sample substance alone at the listed dose (PH 25, HT 12, HC 50, RS 75, LHG 20, PD 3, SG 60 mg/kg)
[11] = compound 41 series, sample A: sugar base + sample substance alone at the listed dose
[12] = compound 57 series, sample A: sugar base + sample substance alone at the listed dose

Structure (SMILES) | Concentration of equal sweetness as 1.5% sucrose control [1] [mg/kg] | Lingering sweetness (trained flavourist panel) | Impact (trained flavourist panel) | Intensity (trained flavourist panel) | Mouthfeel (trained flavourist panel) | Increase of sweetness [2] | Lingering sweetness (0-9), Δ (B-A) [3, 6] | Mouthfeel (0-9), Δ (B-A) [3, 6] | Onset sweetness (0-9), Δ (B-A) [3, 6] | Overall sweetness (0-9), Δ (B-A) [3, 6] | Lingering sweetness (0-9), Δ (B-A) [3, 9] | Mouthfeel (0-9), Δ (B-A) [3, 9] | Mouthfeel (0-9), sample A [3, 10] | Lingering sweetness (0-9), sample A [3, 11] | Lingering sweetness (0-9), sample A [3, 12] | Mouthfeel (0-9), sample A [3, 12] | Onset sweetness (0-9), sample A [3, 12] | Overall sweetness (0-9), sample A [3, 12] | Onset sweetness (0-9), A [3] | Overall sweetness (0-9), A [3] | also measured
CCCCC(=O)OC[C@H]1O[C@@H](Oc2cc(O)c(C(=O)CCc3ccc(OC)c(O)c3)c(O)c2)[C@H](O)[C@@H](O)[C@@H]1O [Compound 57, 6″-O-Pentanoyl-HG] | 3 | 3 | 4-5 | 5-6 | 5 | 25.2 | 1.0 | 0.5 | 0.5 | 1.0 | – | – | – | – | – | – | – | – | – | – | Lingering sweetness ([4]; lemonade base "Stevia Hybrid"): 2.5; Mouthfeel ([4]; lemonade base "Stevia Hybrid"): 5; Onset ([4]; lemonade base "Stevia Hybrid"): 4; Overall sweetness ([4]; lemonade base "Stevia Hybrid"): 6; Lingering sweetness [4, 7]: 3.5; Mouthfeel [4, 7]: 3.5; Onset [4, 7]: 3.5; Overall sweetness [4, 7]: 5; Lingering sweetness [4, 8]: 4; Mouthfeel [4, 8]: 2.5; Onset [4, 8]: 3; Overall sweetness [4, 8]: 5; Lingering sweetness ([4]; lemonade base "Sugar reduced"): 2; Mouthfeel ([4]; lemonade base "Sugar reduced"): 4; Onset ([4]; lemonade base "Sugar reduced"): 4; Overall sweetness ([4]; lemonade base "Sugar reduced"): 4.5
COc1ccc(CCC(=O)c2c(O)cc(O[C@H]3O[C@@H](CO)[C@H](O)[C@@H](O)[C@@H]3O)cc2O)cc1O [HG, hesperetin dihydrochalcone-4′-O-β-d-glucoside, reference compound] | 50 | 2 | 4 | 5 | 4-5 | 34.6 | – | – | – | – | – | – | – | – | – | – | – | – | – | – | effect on impact, intensity and mouthfeel of the sucrose solution (trained flavourist panel; 5% sucrose solution): increases the impact, intensity and mouthfeel; sweet taste of HG in water ([5]; 5 mg/kg HG in water): does not taste sweet; isosweet sucrose concentration ([5]; 10 mg/kg HG in water): 0.5%; isosweet sucrose solution concentration ([5]; 20 mg/kg HG in water): 1%
CCCCCC(=O)OC[C@H]1O[C@@H](Oc2cc(O)c(C(=O)CCc3ccc(OC)c(O)c3)c(O)c2)[C@H](O)[C@@H](O)[C@@H]1O [Compound 73, 6″-O-Hexanoyl-HG] | 5 | 3-4 | 4-5 | 6-7 | 5 | 23.1 | – | – | – | – | – | – | – | – | – | – | – | – | – | – | –
COc1ccc(CCC(=O)c2c(O)cc(O[C@@H]3O[C@H](COC(C)=O)[C@@H](O)[C@H](O)[C@H]3O)cc2O)cc1O [Compound 9, 6″-O-Acetyl-HG] | 15 | 2 | 3 | 4-5 | 4-5 | 33.1 | – | – | – | – | – | – | – | – | – | – | – | – | – | – | –
CCCC(=O)OC[C@H]1O[C@@H](Oc2cc(O)c(C(=O)CCc3ccc(OC)c(O)c3)c(O)c2)[C@H](O)[C@@H](O)[C@@H]1O [Compound 41, 6″-O-Butanoyl-HG] | 5 | 2-3 | 4-5 | 5-6 | 5 | 24.4 | – | – | – | – | 1.0 | 1.0 | – | – | – | – | – | – | – | – | Lingering sweetness ([4]; lemonade base "Stevia Hybrid"): 1; Mouthfeel ([4]; lemonade base "Stevia Hybrid"): 4.5; Onset ([4]; lemonade base "Stevia Hybrid"): 4; Overall sweetness ([4]; lemonade base "Stevia Hybrid"): 5.5; Lingering sweetness [4, 7]: 2.5; Mouthfeel [4, 7]: 3.5; Onset [4, 7]: 4; Overall sweetness [4, 7]: 5; Lingering sweetness [4, 8]: 3; Mouthfeel [4, 8]: 2; Onset [4, 8]: 2.5; Overall sweetness [4, 8]: 4.5; Lingering sweetness ([4]; lemonade base "Sugar reduced"): 0.5; Mouthfeel ([4]; lemonade base "Sugar reduced"): 3.5; Onset ([4]; lemonade base "Sugar reduced"): 4; Overall sweetness ([4]; lemonade base "Sugar reduced"): 4.5
COc1ccc([C@@H]2CC(=O)c3c(O)cc(O)cc3O2)cc1O [HT, Hesperetin] | – | – | – | – | – | – | 2.0 | 0.5 | 1.0 | 1.5 | 1.0 | 0.5 | 3.5 | 0.0 | 0.0 | 3.5 | 2.5 | 3.5 | 2.5 | 3.5 | –
COc1ccc([C@H]2Cc3cccc(O)c3C(=O)O2)cc1O [PD, Phyllodulcin] | – | – | – | – | – | – | 0.5 | 1.0 | 0.5 | 1.0 | 1.0 | 0.5 | 4.0 | 1.0 | 1.0 | 3.5 | 2.5 | 4.0 | 2.5 | 4.0 | –
CCCCCCC(=O)OC[C@H]1O[C@@H](Oc2cc(O)c(C(=O)CCc3ccc(OC)c(O)c3)c(O)c2)[C@H](O)[C@@H](O)[C@@H]1O [Compound 89, 6″-O-Heptanoyl-HG] | 5 | 3-4 | 4-5 | 6-7 | 5 | 27.7 | – | – | – | – | – | – | – | – | – | – | – | – | – | – | –
O=C(CCc1ccc(O)cc1)c1c(O)cc(O)cc1O [PH, Phloretin] | – | – | – | – | – | – | 1.5 | 0.5 | 0.5 | 1.0 | 1.0 | 0.5 | 4.0 | 0.0 | 0.0 | 3.5 | 2.5 | 3.5 | 3.0 | 4.0 | –
